The values that follow come from ChEMBL document CHEMBL1145146, “Synthesis of digalactosyl diacylglycerols and their structure-inhibitory activity on human lanosterol synthase” (Bioorg Med Chem Lett, 2005).

The Ki is the equilibrium dissociation constant of an inhibitor or competing ligand from its target.

In assay [1] the target is T1, Lanosterol synthase (Homo sapiens) (UniProt P48449).
T1 sequence (whole entry): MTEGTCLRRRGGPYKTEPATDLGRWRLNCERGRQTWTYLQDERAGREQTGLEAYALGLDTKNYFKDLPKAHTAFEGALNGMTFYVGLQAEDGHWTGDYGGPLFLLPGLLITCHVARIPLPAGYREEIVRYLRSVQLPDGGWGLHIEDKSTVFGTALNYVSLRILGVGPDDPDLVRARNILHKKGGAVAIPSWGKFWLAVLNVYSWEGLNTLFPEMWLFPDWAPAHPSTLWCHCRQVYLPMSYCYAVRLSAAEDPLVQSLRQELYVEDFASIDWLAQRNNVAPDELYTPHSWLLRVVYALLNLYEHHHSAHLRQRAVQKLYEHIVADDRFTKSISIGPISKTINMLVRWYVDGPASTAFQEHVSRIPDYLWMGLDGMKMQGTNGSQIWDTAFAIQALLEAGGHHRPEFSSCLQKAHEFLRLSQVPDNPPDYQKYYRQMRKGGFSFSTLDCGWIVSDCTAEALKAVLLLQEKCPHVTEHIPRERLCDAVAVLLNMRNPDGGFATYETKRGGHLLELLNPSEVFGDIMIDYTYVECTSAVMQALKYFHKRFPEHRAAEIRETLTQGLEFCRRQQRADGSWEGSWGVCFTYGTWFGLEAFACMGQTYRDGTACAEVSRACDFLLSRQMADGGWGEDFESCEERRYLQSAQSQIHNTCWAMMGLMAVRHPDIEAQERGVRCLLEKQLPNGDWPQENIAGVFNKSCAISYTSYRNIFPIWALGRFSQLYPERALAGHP
Kind of assay: Inhibitory activity against lanosteral synthase at 0.4 umol/assay. Also noted: scale not given: the % may be the effect or the level left.

Assay [2] addresses T1, Lanosterol synthase (Homo sapiens). In words: Inhibitory activity against lanosteral synthase at 0.5 umol/assay. Also noted: scale not given: the % may be the effect or the level left.
The target is the same in assay [3]. In words: Inhibitory activity against lanosteral synthase at 0.25 umol/assay. Further details: scale not given: the % may be the effect or the level left.
For assay [4], the target named is Beta-secretase 1 (Homo sapiens, UniProt P56817). Kind of assay: Binding affinity against human brain memapsin 2. The class given is tissue-based.
Assay [5] addresses T1, Lanosterol synthase (Homo sapiens). Kind of assay: Inhibitory activity against lanosteral synthase at 0.5 umol/assay; n.d. = not detected.
Assay [6] has the same target. Kind of assay: Inhibitory activity against lanosteral synthase at 0.25 umol/assay; n.d. = not detected.

Sequence of Beta-secretase 1 (P56817 whole entry): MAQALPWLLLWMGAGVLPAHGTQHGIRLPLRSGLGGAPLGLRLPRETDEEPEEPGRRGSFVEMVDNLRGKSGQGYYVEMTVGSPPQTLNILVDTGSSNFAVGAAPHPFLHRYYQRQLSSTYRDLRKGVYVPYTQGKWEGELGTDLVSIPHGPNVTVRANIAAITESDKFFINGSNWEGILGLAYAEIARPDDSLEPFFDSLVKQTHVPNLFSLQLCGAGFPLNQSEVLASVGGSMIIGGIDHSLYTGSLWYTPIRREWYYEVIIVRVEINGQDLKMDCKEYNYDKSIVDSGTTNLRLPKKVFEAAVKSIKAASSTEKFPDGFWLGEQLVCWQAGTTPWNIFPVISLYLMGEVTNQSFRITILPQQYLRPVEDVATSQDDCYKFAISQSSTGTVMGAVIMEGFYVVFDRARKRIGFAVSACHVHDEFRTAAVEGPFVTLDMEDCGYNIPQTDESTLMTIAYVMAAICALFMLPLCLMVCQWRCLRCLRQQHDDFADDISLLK

For the compound `CC/C=C\C/C=C\C/C=C\CCCCCCCC(=O)OC(COC(=O)CCCCCCC/C=C\CCCCCC)CO[C@@H]1O[C@H](CO)[C@H](O)C(O)[C@H]1O` (single isomer, unassigned), the Activity in assay [1] was determined as 16%.
`CCCCCC/C=C/CCCCCCCC(=O)OC(COC(=O)CCCCCCC/C=C/CCCCCCCC)CO[C@@H]1O[C@H](COC2O[C@H](CO)[C@H](O)C(O)[C@H]2O)[C@H](O)C(O)[C@H]1O` (single isomer, unassigned): the Activity is 46% in assay [2] and 24% in assay [3].
In the same order, the values of `CC/C=C\C/C=C\C/C=C\CCCCCCCC(=O)OCC(CO[C@@H]1O[C@H](CO[C@H]2O[C@H](CO)[C@H](O)C(O)[C@H]2O)[C@H](O)C(O)[C@H]1O)OC(=O)CCCCCCC/C=C\CCCCCC` (single isomer, unassigned; 2j) are 27% and 3%.
For the compound `C=CCNC(=O)C[C@H](NC(=O)C(NC(=O)OCC=C)C(C)C)C(=O)N[C@@H](CC(C)C)[C@@H](O)C[C@@H](C)C(=O)N[C@H](C(=O)NCc1ccccc1)C(C)C` (stereo partly specified), the Ki in assay [4] is 0.0266 µM.
On to `CC/C=C\C/C=C\C/C=C\CCCCCCCC(=O)OCC(CO[C@@H]1O[C@H](CO[C@H]2O[C@H](CO)[C@H](O)C(O)[C@H]2O)[C@H](O)C(O)[C@H]1O)OC(=O)CCCCCCC/C=C\CCCCCC` (single isomer, unassigned; 2l), for which the Activity in assay [2] came to 26%; in assay [3] it was 5%.
As for `CC/C=C\C/C=C\C/C=C\CCCCCCCC(=O)OC(COC(=O)CCCCCCC/C=C/CCCCCCCC)CO[C@@H]1O[C@H](CO[C@H]2O[C@H](CO)[C@H](O)C(O)[C@H]2O)[C@H](O)C(O)[C@H]1O` (single isomer, unassigned; 2f), the figures for the Activity in assay [2] and in assay [3] were 40% and 9%, respectively.
Turning to `CCCCCC/C=C\CCCCCCCC(=O)OCC(CO[C@@H]1O[C@H](CO[C@H]2O[C@H](CO)[C@H](O)[C@H](O)[C@H]2O)[C@H](O)[C@H](O)[C@H]1O)OC(=O)CCCCCCC/C=C/CCCCCCCC` (stereo partly specified), the Activity in assay [2] turned out to be 21%; in assay [3], 4%.
Turning to `CC/C=C\C/C=C\C/C=C\CCCCCCCC(=O)OC(COC(=O)CCCCCCC/C=C/CCCCCCCC)CO[C@@H]1O[C@H](CO[C@H]2O[C@H](CO)[C@H](O)C(O)[C@H]2O)[C@H](O)C(O)[C@H]1O` (single isomer, unassigned; 2i), the results for the Activity in assay [2] and in assay [3] were 29% and 7%, respectively.
In assay [1], `CC/C=C\C/C=C\C/C=C\CCCCCCCC(=O)OC(COC(=O)CCCCCCCCCCCCC)CO[C@@H]1OC(CO)[C@H](O)[C@@H](O)C1O` (stereo partly specified) displayed an Activity of 23%.
`OCC(O)CO[C@@H]1O[C@H](CO[C@H]2O[C@H](CO)[C@H](O)[C@H](O)[C@H]2O)[C@H](O)[C@H](O)[C@H]1O` (stereo partly specified): the Activity entry in assay [5] and in assay [6] was “Not detected” each time.
Turning to `CCCCCCCC/C=C/CCCCCCCC(=O)OCC(CO[C@@H]1O[C@H](CO[C@H]2O[C@H](CO)[C@H](O)C(O)[C@H]2O)[C@H](O)C(O)[C@H]1O)OC(=O)CCCCCCC/C=C/CCCCCCCC` (single isomer, unassigned), the figures for the Activity in assay [2] and in assay [3] were 57% and 42%, respectively.
As for `CC/C=C\C/C=C\C/C=C\CCCCCCCC(=O)OCC(CO[C@@H]1OC(CO[C@H]2OC(CO)[C@H](O)[C@@H](O)C2O)[C@H](O)[C@@H](O)C1O)OC(=O)CCCCCCCCCCCCC` (stereo partly specified), the Activity in assay [2] worked out at 38%; in assay [3], 22%.
On to `CCCCCC/C=C\CCCCCCCC(=O)OCC(CO[C@@H]1O[C@H](CO[C@H]2O[C@H](CO)[C@H](O)[C@H](O)[C@H]2O)[C@H](O)[C@H](O)[C@H]1O)OC(=O)CCCCCCC/C=C\CCCCCC` (stereo partly specified), for which the Activity stood at 24% in assay [2] and 4% in assay [3].
Turning to `CC/C=C\C/C=C\C/C=C\CCCCCCCC(=O)OCC(CO[C@@H]1O[C@H](CO)[C@H](O)C(O)[C@H]1O)OC(=O)CCCCCCC/C=C\CCCCCCCC` (single isomer, unassigned), in assay [1], the Activity was 19%.
Regarding `CCCCCC/C=C\CCCCCCCC(=O)OC(COC(=O)CCCCCCCCCCCCC)CO[C@@H]1OC(CO[C@H]2OC(CO)[C@H](O)[C@@H](O)C2O)[C@H](O)[C@@H](O)C1O` (stereo partly specified), the results for the Activity in assay [2] and in assay [3] were 45% and 35%, respectively.
In the case of `CC/C=C\C/C=C\C/C=C\CCCCCCCC(=O)OCC(CO[C@@H]1O[C@H](CO[C@H]2O[C@H](CO)[C@H](O)C(O)[C@H]2O)[C@H](O)C(O)[C@H]1O)OC(=O)CCCCCCC/C=C\C/C=C\C/C=C\CC` (single isomer, unassigned; 2d), the Activity in assay [2] turned out to be 45%; in assay [3], 18%.
The like results for `CCCCCCCCCCCCCC(=O)OCC(CO[C@@H]1O[C@H](CO[C@H]2O[C@H](CO)[C@H](O)C(O)[C@H]2O)[C@H](O)C(O)[C@H]1O)OC(=O)CCCCCCCCCCCCC` (single isomer, unassigned) were, in that order, 72% and 51%.
In the case of `CC/C=C\C/C=C\C/C=C\CCCCCCCC(=O)OCC(CO[C@@H]1O[C@H](CO[C@H]2O[C@H](CO)[C@H](O)C(O)[C@H]2O)[C@H](O)C(O)[C@H]1O)OC(=O)CCCCCCC/C=C\C/C=C\C/C=C\CC` (single isomer, unassigned; 2k), the results for the Activity in assay [2] and in assay [6] were 26% and “Not detected”, respectively.
Take `CC/C=C\C/C=C\C/C=C\CCCCCCCC(=O)OCC(CO[C@@H]1O[C@H](CO[C@H]2O[C@H](CO)[C@H](O)C(O)[C@H]2O)[C@H](O)C(O)[C@H]1O)OC(=O)CCCCCCC/C=C/CCCCCCCC` (single isomer, unassigned): the values for the Activity in assay [2] and in assay [3] were 31% and 8%, respectively.
For `CC/C=C\C/C=C\C/C=C\CCCCCCCC(=O)OC(COC(=O)CCCCCCC/C=C\CCCCCC)CO[C@@H]1O[C@H](CO[C@H]2O[C@H](CO)[C@H](O)[C@H](O)[C@H]2O)[C@H](O)[C@H](O)[C@H]1O` (stereo partly specified), the figures for the Activity in assay [2] and in assay [6] were 20% and “Not detected”, respectively.
